Data reported in ChEMBL document CHEMBL1142531, “Discovery and biological profile of 4-(1-aryltriazol-4-yl)-tetrahydropyridines as an orally active new class of metabotropic glutamate receptor 1 antagonist” (Bioorg Med Chem, 2008).
In brackets after ≈: the same amount, converted by molar mass. Activity calls are given as the source filed them. The calls are words filed in the database; no cut-off is given here.

What was measured:
[1] = Octanol-water partition coefficient, log D at pH 7.4 by shake flask method; assay type: physicochemical
[2] = molecular target: Metabotropic glutamate receptor 5 (Homo sapiens, UniProt P41594); assay: Antagonist activity at human mGluR5 expressed in CHO cells assessed as calcium flux by FLIPR assay; assay type: functional, cell-based
Metabotropic glutamate receptor 5, sequence (P41594 whole entry): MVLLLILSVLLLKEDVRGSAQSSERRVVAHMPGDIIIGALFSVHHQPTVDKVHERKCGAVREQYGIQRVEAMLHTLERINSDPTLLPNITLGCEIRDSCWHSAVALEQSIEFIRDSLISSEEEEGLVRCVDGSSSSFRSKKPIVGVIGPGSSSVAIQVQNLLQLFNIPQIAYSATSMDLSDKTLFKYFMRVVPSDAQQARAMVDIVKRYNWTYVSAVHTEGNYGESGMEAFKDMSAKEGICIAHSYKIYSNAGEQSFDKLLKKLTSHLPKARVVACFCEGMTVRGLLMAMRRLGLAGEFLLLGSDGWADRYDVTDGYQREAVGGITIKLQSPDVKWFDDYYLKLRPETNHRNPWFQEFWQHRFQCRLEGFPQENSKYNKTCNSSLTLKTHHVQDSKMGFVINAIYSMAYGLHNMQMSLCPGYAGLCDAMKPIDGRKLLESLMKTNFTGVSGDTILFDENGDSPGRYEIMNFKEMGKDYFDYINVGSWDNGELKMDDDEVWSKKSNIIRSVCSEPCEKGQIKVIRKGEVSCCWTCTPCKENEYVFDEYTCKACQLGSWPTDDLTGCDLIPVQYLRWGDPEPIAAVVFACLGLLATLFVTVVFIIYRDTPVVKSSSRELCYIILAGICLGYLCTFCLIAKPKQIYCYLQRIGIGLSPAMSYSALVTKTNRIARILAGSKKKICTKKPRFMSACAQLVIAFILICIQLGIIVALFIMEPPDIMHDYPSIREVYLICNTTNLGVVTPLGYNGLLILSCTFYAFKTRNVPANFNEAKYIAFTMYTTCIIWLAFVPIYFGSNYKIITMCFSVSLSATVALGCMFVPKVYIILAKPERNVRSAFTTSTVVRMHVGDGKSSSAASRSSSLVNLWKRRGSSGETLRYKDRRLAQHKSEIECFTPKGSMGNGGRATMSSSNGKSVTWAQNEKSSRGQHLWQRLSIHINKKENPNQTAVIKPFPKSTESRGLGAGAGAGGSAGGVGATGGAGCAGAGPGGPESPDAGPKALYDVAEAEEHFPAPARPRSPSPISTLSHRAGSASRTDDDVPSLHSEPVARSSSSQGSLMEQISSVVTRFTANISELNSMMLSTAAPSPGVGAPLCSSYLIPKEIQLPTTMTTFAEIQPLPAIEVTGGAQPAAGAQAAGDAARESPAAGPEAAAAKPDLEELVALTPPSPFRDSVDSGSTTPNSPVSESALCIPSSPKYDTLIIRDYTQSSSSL

[3] = molecular target: Metabotropic glutamate receptor 1 (Homo sapiens, UniProt Q13255); assay: Antagonist activity at human mGluR1 expressed in CHO cells assessed as calcium flux by FLIPR assay; assay type: functional, cell-based
Metabotropic glutamate receptor 1 (Homo sapiens, UniProt Q13255), sequence (Q13255 whole entry): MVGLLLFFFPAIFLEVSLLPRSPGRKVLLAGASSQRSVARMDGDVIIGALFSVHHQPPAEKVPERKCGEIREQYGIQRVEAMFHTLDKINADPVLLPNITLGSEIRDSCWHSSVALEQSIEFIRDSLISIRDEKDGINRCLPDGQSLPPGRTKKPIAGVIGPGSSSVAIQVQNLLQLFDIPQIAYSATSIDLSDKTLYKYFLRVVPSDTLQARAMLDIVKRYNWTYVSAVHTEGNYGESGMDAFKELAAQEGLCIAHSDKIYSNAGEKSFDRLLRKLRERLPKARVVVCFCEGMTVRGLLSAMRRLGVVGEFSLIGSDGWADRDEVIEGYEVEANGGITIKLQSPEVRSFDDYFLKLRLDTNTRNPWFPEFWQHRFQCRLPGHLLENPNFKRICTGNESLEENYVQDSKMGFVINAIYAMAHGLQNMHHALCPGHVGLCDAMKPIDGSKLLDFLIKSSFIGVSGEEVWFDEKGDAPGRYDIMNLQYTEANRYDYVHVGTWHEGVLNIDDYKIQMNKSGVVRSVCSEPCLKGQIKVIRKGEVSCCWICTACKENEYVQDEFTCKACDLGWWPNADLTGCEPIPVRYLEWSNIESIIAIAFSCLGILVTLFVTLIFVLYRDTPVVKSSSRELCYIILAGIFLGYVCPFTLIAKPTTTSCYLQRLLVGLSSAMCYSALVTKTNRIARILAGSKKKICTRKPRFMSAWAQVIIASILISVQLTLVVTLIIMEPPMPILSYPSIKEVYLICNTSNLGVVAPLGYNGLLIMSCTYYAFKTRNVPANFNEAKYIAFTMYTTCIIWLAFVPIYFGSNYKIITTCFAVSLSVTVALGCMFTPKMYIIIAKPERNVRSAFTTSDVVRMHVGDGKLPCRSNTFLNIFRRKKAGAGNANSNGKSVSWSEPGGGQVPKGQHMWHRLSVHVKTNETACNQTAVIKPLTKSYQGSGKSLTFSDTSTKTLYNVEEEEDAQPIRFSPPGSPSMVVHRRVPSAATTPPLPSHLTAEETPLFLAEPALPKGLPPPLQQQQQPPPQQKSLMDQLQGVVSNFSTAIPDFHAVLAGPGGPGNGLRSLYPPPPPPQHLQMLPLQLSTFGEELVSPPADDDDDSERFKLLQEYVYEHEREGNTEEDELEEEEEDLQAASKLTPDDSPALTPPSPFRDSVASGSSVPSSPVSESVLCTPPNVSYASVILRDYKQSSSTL

[4] = molecular target: Metabotropic glutamate receptor 1 (Mus musculus, UniProt P97772); assay: Antagonist activity at mouse mGluR1 expressed in CHO cells assessed as calcium flux by FLIPR assay; assay type: functional, cell-based
Metabotropic glutamate receptor 1 (Mus musculus, UniProt P97772), sequence (P97772 whole entry): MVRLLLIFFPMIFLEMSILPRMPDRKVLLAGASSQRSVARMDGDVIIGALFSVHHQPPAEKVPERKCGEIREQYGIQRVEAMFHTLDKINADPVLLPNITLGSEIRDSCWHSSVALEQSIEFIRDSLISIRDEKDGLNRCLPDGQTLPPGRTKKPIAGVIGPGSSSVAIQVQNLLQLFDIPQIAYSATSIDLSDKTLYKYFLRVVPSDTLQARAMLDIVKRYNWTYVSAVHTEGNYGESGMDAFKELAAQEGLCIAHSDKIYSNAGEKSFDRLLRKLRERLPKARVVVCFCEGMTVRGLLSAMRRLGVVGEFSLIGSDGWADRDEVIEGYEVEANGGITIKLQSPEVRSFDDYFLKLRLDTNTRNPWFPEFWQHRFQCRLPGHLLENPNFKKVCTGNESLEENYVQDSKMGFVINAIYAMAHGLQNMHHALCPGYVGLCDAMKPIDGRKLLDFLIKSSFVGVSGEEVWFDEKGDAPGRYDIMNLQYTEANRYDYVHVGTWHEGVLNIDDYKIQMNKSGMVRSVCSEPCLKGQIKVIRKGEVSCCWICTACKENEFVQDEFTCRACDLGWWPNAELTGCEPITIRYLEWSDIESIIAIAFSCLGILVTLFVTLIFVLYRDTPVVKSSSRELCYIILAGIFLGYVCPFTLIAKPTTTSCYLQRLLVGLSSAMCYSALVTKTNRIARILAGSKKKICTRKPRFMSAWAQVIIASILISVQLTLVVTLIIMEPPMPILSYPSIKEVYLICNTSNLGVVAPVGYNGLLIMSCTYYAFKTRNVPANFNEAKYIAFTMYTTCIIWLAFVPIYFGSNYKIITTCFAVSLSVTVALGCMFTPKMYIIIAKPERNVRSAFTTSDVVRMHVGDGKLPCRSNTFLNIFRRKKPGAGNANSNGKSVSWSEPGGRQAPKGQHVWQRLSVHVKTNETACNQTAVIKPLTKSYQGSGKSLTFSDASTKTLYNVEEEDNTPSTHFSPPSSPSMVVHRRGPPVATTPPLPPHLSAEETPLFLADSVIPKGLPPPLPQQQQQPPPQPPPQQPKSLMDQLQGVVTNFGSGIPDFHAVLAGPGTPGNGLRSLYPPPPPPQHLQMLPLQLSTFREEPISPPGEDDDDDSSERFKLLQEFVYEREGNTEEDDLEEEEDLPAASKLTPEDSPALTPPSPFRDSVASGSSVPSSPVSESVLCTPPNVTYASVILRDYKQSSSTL

Mus musculus [5] = assay: Brain concentration in mouse at 10 mg/kg, po after 30 mins; assay type: ADME, organism-based; set-up: dose 10 mg/kg, route oral; conditions: in vivo, 0.5 h
[6] = Inhibition of NMDA receptor
[7] = molecular target: Metabotropic glutamate receptor 8 (Homo sapiens) (UniProt O00222); assay: Activity at human mGluR8 expressed in CHO-K1 cells at 10 uM by [35S]GTPgammaS binding assay; assay type: functional, cell-based
Metabotropic glutamate receptor 8 (Homo sapiens), sequence (O00222 whole entry): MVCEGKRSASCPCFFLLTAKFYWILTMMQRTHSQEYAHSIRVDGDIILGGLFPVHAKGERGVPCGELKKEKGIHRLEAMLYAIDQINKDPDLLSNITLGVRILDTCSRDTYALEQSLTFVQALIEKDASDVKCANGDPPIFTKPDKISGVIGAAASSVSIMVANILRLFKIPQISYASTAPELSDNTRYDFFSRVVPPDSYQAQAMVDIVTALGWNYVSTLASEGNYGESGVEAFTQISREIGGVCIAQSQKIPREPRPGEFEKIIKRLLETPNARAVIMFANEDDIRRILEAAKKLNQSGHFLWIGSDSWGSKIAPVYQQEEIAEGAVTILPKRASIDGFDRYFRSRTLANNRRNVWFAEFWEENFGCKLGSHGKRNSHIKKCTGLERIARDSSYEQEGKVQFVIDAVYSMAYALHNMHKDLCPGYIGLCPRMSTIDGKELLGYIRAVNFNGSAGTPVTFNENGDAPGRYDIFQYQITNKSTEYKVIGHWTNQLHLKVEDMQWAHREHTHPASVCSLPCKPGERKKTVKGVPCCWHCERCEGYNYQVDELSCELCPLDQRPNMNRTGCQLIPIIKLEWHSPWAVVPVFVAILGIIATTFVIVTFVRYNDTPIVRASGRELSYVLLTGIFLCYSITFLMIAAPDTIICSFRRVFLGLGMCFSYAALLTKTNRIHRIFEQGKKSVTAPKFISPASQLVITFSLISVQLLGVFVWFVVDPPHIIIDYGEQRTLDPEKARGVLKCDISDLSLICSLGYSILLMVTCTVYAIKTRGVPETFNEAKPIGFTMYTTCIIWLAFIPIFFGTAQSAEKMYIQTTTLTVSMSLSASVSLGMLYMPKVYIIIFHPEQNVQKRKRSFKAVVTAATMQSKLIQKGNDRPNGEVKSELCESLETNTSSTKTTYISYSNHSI

[8] = Total plasma clearance in rat at 1 mg/kg, iv; assay type: ADME, organism-based; set-up: dose 1 mg/kg, route intravenous
[9] = Solubility in water by ultra performance liquid chromatography; assay type: physicochemical
[10] = Metabolic stability in mouse liver microsomes at 1 uM after 30 mins; assay type: ADME, Microsome; conditions: read-out: Stability
Mus musculus [11] = assay: Inhibition of (S)-3,5-[…]-induced face washing behavior in mouse at 10 to 30 mg/kg, ip administered 30 mins before (S)-3,5-DHPG measured after 5 mins; assay type: functional, organism-based
[12] = Metabolic stability in human liver microsomes at 1 uM after 30 mins; assay type: ADME, Microsome; conditions: read-out: Stability
[13] = Half life in rat at 1 mg/kg, iv; assay type: ADME, organism-based; set-up: dose 1 mg/kg, route intravenous; conditions: in vivo
[14] = molecular target: Metabotropic glutamate receptor 4 (Homo sapiens) (UniProt Q14833); assay: Activity at human mGluR4 expressed in CHO cells at 10 uM by [35S]GTPgammaS binding assay; assay type: functional, cell-based
[15] = molecular target: Metabotropic glutamate receptor 6 (Homo sapiens) (UniProt O15303); assay: Activity at human mGluR6 expressed in CHO cells at 10 uM by [35S]GTPgammaS binding assay; assay type: functional, cell-based
[16] = Inhibition of kainate receptor
[17] = Plasma concentration in mouse at 10 mg/kg, po after 30 mins; assay type: ADME, organism-based; set-up: dose 10 mg/kg, route oral
Mus musculus [18] = assay: Inhibition of (S)-3,5-[…]-induced face washing behavior in mouse at 10 to 30 mg/kg, po administered 30 mins before (S)-3,5-DHPG measured after 5 mins; assay type: functional, organism-based
[19] = molecular target: Metabotropic glutamate receptor 2 (Homo sapiens) (UniProt Q14416); assay: Activity at human mGluR2 expressed in CHO cells at 10 uM by [35S]GTPgammaS binding assay; assay type: functional, cell-based
[20] = Inhibition of AMPA receptor
[21] = molecular target: Metabotropic glutamate receptor 7 (Homo sapiens) (UniProt Q14831); assay: Activity at human mGluR7 expressed in CHO cells at 10 uM by [35S]GTPgammaS binding assay; assay type: functional, cell-based
[22] = Oral bioavailability in rat at 3 mg/kg; assay type: ADME, organism-based; conditions: in vivo
[23] = Metabolic stability in rat liver microsomes at 1 uM after 30 mins; assay type: ADME, Microsome; conditions: read-out: Stability
Mus musculus [24] = assay: Inhibition of (S)-3,5-[…]-induced face washing behavior in mouse administered 30 mins before (S)-3,5-DHPG measured after 5 mins; assay type: functional, organism-based
Mus musculus [25] = assay: Inhibition of (S)-3,5-[…]-induced face washing behavior in mouse at 3 to 10 mg/kg, ip administered 30 mins before (S)-3,5-DHPG measured after 5 mins; assay type: functional, organism-based

Structure (SMILES)	logD [1]	IC50 [2] [nM]	IC50 [3] [nM]	IC50 [4] [nM]	further results
CC(C)(C)OC(=O)N1CC=C(c2cn(-c3ccccc3F)nn2)CC1	> 4	1000	6.3	16	
N[C@H](C(=O)O)c1ccc(C(=O)O)cc1					Activity (Mus musculus [24]): Active
CC(C)(C)OC(=O)N1CC=C(c2cn(-c3cccnc3F)nn2)CC1	3.1	4300	2.6	12	
CC(C)(C)OC(=O)N1CC=C(c2cn(-c3ccncc3)nn2)CC1		> 10000	220	1000	
CC(C)(C)OC(=O)N1CC=C(c2cn(-c3ccccn3)nn2)CC1	> 4	8700	49	150	
CC(C)OC(=O)N1CC=C(c2cn(-c3cccnc3F)nn2)CC1	2.8	3900	39	180	
NC1(C(=O)O)CCc2cc(C(=O)O)ccc21 (racemic)					Activity (Mus musculus [24]): Active
Cc1c(C2=CCN(C(=O)OC(C)(C)C)CC2)nnn1-c1cccnc1F	2.9	170	7	1.5	solubility [9]: 155 µM (≈ 55.7 µg/mL); remaining at 0.5 h, 1 µM [10]: 2%; remaining at 0.5 h, 1 µM [12]: 90%; Activity (Mus musculus [25]): Active; remaining at 0.5 h, 1 µM [23]: 70%
CC(C)(C)OC(=O)N1CC=C(c2cn(-c3cccnc3)nn2)CC1	3	8300	55	180	
Cc1c(C2=CCN(C(=O)OC(C)C)CC2)nnn1-c1cccnc1F	2.8	40	7.2	3.3	
Cc1ccccc1-n1cc(C2=CCN(C(=O)OC(C)(C)C)CC2)nn1	> 4	880	11	58	

Continued, in another order:

logD [1]	IC50 [2] [nM]	IC50 [3] [nM]	IC50 [4] [nM]	Structure (SMILES)	further results
2.1	6200		3.1	Cc1c(C2=CCN(C(=O)N(C)C(C)C)CC2)nnn1-c1cccnc1F	Drug uptake (Mus musculus [5]): 0.17 nmol/g; IC50 [6]: > 10000 nM; Activity [7]: inactive; clearance [8]: 57 mL/min/kg; solubility [9]: > 170 µM; remaining at 0.5 h, 1 µM [10]: 27%; Activity (Mus musculus [11]): Active; remaining at 0.5 h, 1 µM [12]: 85%; half-life [13]: 12 min; Activity [14]: inactive; Activity [15]: inactive; IC50 [16]: > 10000 nM; concentration at 0.5 h [17]: 210 nM; Activity (Mus musculus [18]): Active; Activity [19]: inactive; IC50 [20]: > 10000 nM; Activity [21]: inactive; bioavailability [22]: 18%; remaining at 0.5 h, 1 µM [23]: 61%
3.2	8600	57	290	CC(C)(C)NC(=O)N1CC=C(c2cn(-c3ccccc3F)nn2)CC1	
> 4	820	9.8	24	CC(C)(C)OC(=O)N1CC=C(c2cn(-c3ccccc3)nn2)CC1	solubility [9]: 2.4 µM (≈ 0.783 µg/mL); remaining at 0.5 h, 1 µM [12]: 57%; remaining at 0.5 h, 1 µM [23]: 16%
	> 10000	120	160	CC(C)(C)CC(=O)N1CC=C(c2cn(-c3ccccc3F)nn2)CC1	
	4000	590	1600	COc1ccccc1-n1cc(C2=CCN(C(=O)OC(C)(C)C)CC2)nn1	
> 4	1100	16	31	CC(C)(C)OC(=O)N1CC=C(c2cn(-c3ccc(F)cc3)nn2)CC1	
> 4	1100	18	39	CC(C)(C)OC(=O)N1CC=C(c2cn(-c3cccc(F)c3)nn2)CC1	
